In patent US5091539A, “Azolyl cycloalkanol derivatives and agricultural fungicides” (Shionogi & Co., Ltd., priority 1984, dated 1992):

Assays:
Assay type in all cases: in vivo
Sphaerotheca fuliginea [1] = experiment: Control test to powdery mildew of cucumber (foliar and soil treatment); details: for Protective Index, Foliar Treatment / Protective Index, Soil Treatment: first Table 4, 125 ppm, 14 days; for Powdery mildew, Foliar Treatment, Curative Effect / Powdery mildew, Foliar Treatment, Protective Effect / Powdery mildew, Soil Treatment, Protective Effect / Foliar Treatment, Curative Effect / Foliar Treatment, Protective Effect / Soil Treatment, Protective Effect: index 0-10
Method: (1) Seeds of cucumber (Cultivar: Matsukaze) were sown in a pot of 9 cm in diameter and the pots were kept in a green house until the plant was grown for 2-3 leaf stage. The first leaf was sprayed with, (i) 3 ml each of solutions containing the test compound at the prescribed concetrations and dried by the air (foliar treatment). Inoculation of spore suspension of Sphaerotheca fuliginea by spraying was practised 2 days before the treatment (curative effect) or 1 day after the treatment (protective effect). Alternatively, (ii) 5 ml of the solution was applied at the root of the seedlings (soil treatment). The pots were kept in a greenhouse for 2 days and inoculation was practised in the same manner noted above. (iii) After sprayed with 3 ml of a solution of the test compound at a concentration of 125 ppm and dried by the air, the treated pots were set in a greenhouse. Untreated pots were placed next to the treated pots. Those treated and untreated plants were inoculated with spore suspension. Protective effect of the test compounds by vapor was thus checked. The effect was examined 14 days after the inoculation of the spores.
0: Disease sign is observed on the whole leaf.
3: Disease sign is observed on the leaf in about 50%.
5: Disease sign is observed on the leaf in about 30%.
7: Disease sign is observed on the leaf in about 20%.
9: a little disease sign is observed.
(§1) (1) Test methods and evaluation are the same as those in Tests 2, 4 and 6.

Puccinia coronata = experiment: Control test of crown rust of oat; details: 125 ppm
Method: (1) Young oats (Cultivar: Pc38) grown in pots in a greenhouse were (i) sprayed with 10 ml each of solution of the test compounds at a prescribed concentration and after air-drying, they were inoculated with 15 mg of uredospores of Puccinia coronata per 20 pots (protective spraying) or (ii) sprayed with the test solution 3 days after inoculation of uredospores. After each plant was kept at 20°-25° C. in a greenhouse for 2 weeks, number of uredia was counted on the first leaf.

Sphaerotheca fuliginea [2] = experiment: Control test to powdery mildew of cucumber by vapor (filter paper disks)
Method: (1) The first leaves of young cucumber (Cultivar: Matsukaze) planted in pot of 9 cm in diameter were inoculated with spore suspension of Sphaerotheca fuliginea. After the plants were kept in a greenhouse for 2 days, thin cover plates, 15 mm in diameter, were put on the first leaves. Filter paper disks soaked with 80 μl of test solution at a concentration of 31.3, 7.8, 2.0 or 0.5 ppm were put on the plates for 3 days. Disease degrees were observed 14 days after the inoculation.
It is evaluated as + when an inhibition zone was observed around the plate, as ± when the inhibition zone has nearly the same diameter (8 mm) as that of plate or as - when there is no inhibition zone.
as §1

Botrytis cinerea = experiment: Control test of Botrytis rot (gray mold) of cucumber
Method: (1) Seedlings of cucumber (Cultivar: Matsukaze) were planted in a pot of 9 cm in diameter. The first leaf was sprayed with 3 ml each of solutions containing the test compound at the concentration of 125 or 31.3 ppm and the plant was dried by the air. After inoculation of the spores of Botrytis cinerea, the plants were kept at 20°±2° C. and 90-100% humidity ((i) protective spraying). Alternatively, the spores were inoculated at first and when the leaves suffered a little (about 2 days after), the solutions of the test compounds were sprayed ((ii) curative spraying). Evaluation was practised 3 days after the inoculation. Percent disease control was calculated by the ratio of diameter of diseased area in treated and untreated plants.
as §1

Question: Which “Protective Index, Foliar Treatment” value (Sphaerotheca fuliginea [1]) does the source give for `O[C@@]1(c2cccc3ccccc23)CCCC[C@H]1n1cncn1` (relative stereo) [Compound 1, cis-1-(1-naphthyl)-2-(1,2,4-triazol-1-yl)/cyclohexanol] here?
Answer: 10

Question: And the “Protective Index, Soil Treatment” value (Sphaerotheca fuliginea [1])?
Answer: 5 (Disease sign is observed on the leaf in about 30%.)

Question: And the “Percent Disease Control, Curative Spraying” value (Puccinia coronata; curative)?
Answer: 100%

Question: And the “Percent Disease Control, Protective Spraying” value (Puccinia coronata; protective)?
Answer: 100%

Question: Which results are given for `O[C@]1(c2ccc(Cl)cc2)CCCC[C@H]1n1cncn1` (relative stereo) [Trans-isomer of Compound 22, 1-(4-chlorophenyl)-2-(1,2,4-triazol-1-yl)cyclohexanol, reference compound]?
Answer: Powdery mildew, Foliar Treatment, Curative Effect (Sphaerotheca fuliginea [1]; Table 9, 0.03 ppm): 0; Powdery mildew, Foliar Treatment, Protective Effect (Sphaerotheca fuliginea [1]; Table 9, 0.03 ppm): 0; Powdery mildew, Foliar Treatment, Curative Effect (Sphaerotheca fuliginea [1]; Table 9, 0.12 ppm): 0; Powdery mildew, Foliar Treatment, Protective Effect (Sphaerotheca fuliginea [1]; Table 9, 0.12 ppm): 0; Powdery mildew, Foliar Treatment, Curative Effect (Sphaerotheca fuliginea [1]; Table 9, 0.5 ppm): 5 (Disease sign is observed on the leaf in about 30%.); Powdery mildew, Foliar Treatment, Protective Effect (Sphaerotheca fuliginea [1]; Table 9, 0.5 ppm): 3 (Disease sign is observed on the leaf in about 50%.); Powdery mildew, Soil Treatment, Protective Effect (Sphaerotheca fuliginea [1]; Table 9, 0.5 ppm): 0; Powdery mildew, Foliar Treatment, Curative Effect (Sphaerotheca fuliginea [1]; Table 9, 2.0 ppm): 9; Powdery mildew, Foliar Treatment, Protective Effect (Sphaerotheca fuliginea [1]; Table 9, 2.0 ppm): 10; Powdery mildew, Soil Treatment, Protective Effect (Sphaerotheca fuliginea [1]; Table 9, 2.0 ppm): 0; Powdery mildew, Soil Treatment, Protective Effect (Sphaerotheca fuliginea [1]; Table 9, 7.8 ppm): 0; Powdery mildew, Soil Treatment, Protective Effect (Sphaerotheca fuliginea [1]; Table 9, 31.3 ppm): 5 (Disease sign is observed on the leaf in about 30%.); Powdery mildew, Vapor Effect (Sphaerotheca fuliginea [2]; Table 9, 2.0 ppm): -; Powdery mildew, Vapor Effect (Sphaerotheca fuliginea [2]; Table 9, 7.8 ppm): -; Powdery mildew, Vapor Effect (Sphaerotheca fuliginea [2]; Table 9, 31.3 ppm): -; Gray Mold, Percent Disease Control, Curative Spraying (Botrytis cinerea; Table 9, 7.8 ppm): 0%; Gray Mold, Percent Disease Control, Protective Spraying (Botrytis cinerea; Table 9, 7.8 ppm): 0%; Gray Mold, Percent Disease Control, Curative Spraying (Botrytis cinerea; Table 9, 31.3 ppm): 0%; Gray Mold, Percent Disease Control, Protective Spraying (Botrytis cinerea; Table 9, 31.3 ppm): 3%; Gray Mold, Percent Disease Control, Curative Spraying (Botrytis cinerea; Table 9, 125 ppm): 2%; Gray Mold, Percent Disease Control, Protective Spraying (Botrytis cinerea; Table 9, 125 ppm): 3%

Question: For `O[C@@]1(c2ccc(Cl)cc2)CCCC[C@H]1n1ccnc1` (relative stereo) [Compound 26], which “Foliar Treatment, Curative Effect” value (Sphaerotheca fuliginea [1]; second Table 4, 0.5 ppm) is on record?
Answer: 0

Question: And the “Foliar Treatment, Protective Effect” value (Sphaerotheca fuliginea [1]; second Table 4, 0.5 ppm)?
Answer: 0

Question: What about the “Foliar Treatment, Curative Effect” value (Sphaerotheca fuliginea [1]; second Table 4, 2.0 ppm) of the same compound?
Answer: 7 (Disease sign is observed on the leaf in about 20%.)

Question: What about the “Foliar Treatment, Protective Effect” value (Sphaerotheca fuliginea [1]; second Table 4, 2.0 ppm) of the same compound?
Answer: 3 (Disease sign is observed on the leaf in about 50%.)

Question: And the “Foliar Treatment, Curative Effect” value (Sphaerotheca fuliginea [1]; second Table 4, 7.8 ppm)?
Answer: 9

Question: And the “Foliar Treatment, Protective Effect” value (Sphaerotheca fuliginea [1]; second Table 4, 7.8 ppm)?
Answer: 9

Question: And the “Foliar Treatment, Curative Effect” value (Sphaerotheca fuliginea [1]; second Table 4, 31.3 ppm)?
Answer: 10

Question: What about the “Foliar Treatment, Protective Effect” value (Sphaerotheca fuliginea [1]; second Table 4, 31.3 ppm) of the same compound?
Answer: 10

Question: Which “Foliar Treatment, Curative Effect” value (Sphaerotheca fuliginea [1]; second Table 4, 0.5 ppm) does the source give for `O[C@@]1(c2cc(Cl)ccc2Cl)CCCC[C@H]1n1cncn1` (relative stereo) [Compound 35] here?
Answer: 10

Question: And the “Foliar Treatment, Protective Effect” value (Sphaerotheca fuliginea [1]; second Table 4, 0.5 ppm)?
Answer: 5 (Disease sign is observed on the leaf in about 30%.)

Question: What about the “Soil Treatment, Protective Effect” value (Sphaerotheca fuliginea [1]; second Table 4, 0.5 ppm) of the same compound?
Answer: 0

Question: What about the “Foliar Treatment, Curative Effect” value (Sphaerotheca fuliginea [1]; second Table 4, 2.0 ppm) of the same compound?
Answer: 10

Question: What about the “Foliar Treatment, Protective Effect” value (Sphaerotheca fuliginea [1]; second Table 4, 2.0 ppm) of the same compound?
Answer: 10

Question: What about the “Soil Treatment, Protective Effect” value (Sphaerotheca fuliginea [1]; second Table 4, 2.0 ppm) of the same compound?
Answer: 0

Question: And the “Foliar Treatment, Curative Effect” value (Sphaerotheca fuliginea [1]; second Table 4, 7.8 ppm)?
Answer: 10

Question: And the “Foliar Treatment, Protective Effect” value (Sphaerotheca fuliginea [1]; second Table 4, 7.8 ppm)?
Answer: 10

Question: And the “Soil Treatment, Protective Effect” value (Sphaerotheca fuliginea [1]; second Table 4, 7.8 ppm)?
Answer: 9

Question: What about the “Foliar Treatment, Curative Effect” value (Sphaerotheca fuliginea [1]; second Table 4, 31.3 ppm) of the same compound?
Answer: 10

Question: What about the “Foliar Treatment, Protective Effect” value (Sphaerotheca fuliginea [1]; second Table 4, 31.3 ppm) of the same compound?
Answer: 10

Question: What about the “Soil Treatment, Protective Effect” value (Sphaerotheca fuliginea [1]; second Table 4, 31.3 ppm) of the same compound?
Answer: 10

Question: How did the “Protective Index, Foliar Treatment” value (Sphaerotheca fuliginea [1]) turn out when `O[C@@]1(c2cccs2)CCCC[C@H]1n1ccnc1` (relative stereo) [Compound 6, cis-1-(2-thienyl)-2-imidazolylcyclohexanol] was run?
Answer: 10

Question: And the “Protective Index, Soil Treatment” value (Sphaerotheca fuliginea [1])?
Answer: 0
